This is an account of results in patent US6541463B1, “Inhibitors of type 5 and type 3 17β-hydroxysteroid dehydrogenase and methods for their use” (Endorecherche, Inc., priority 1998, dated 2003).

Each structure is given as a SMILES string.

The target of one test is T1, human type 5 17β-hydroxysteroid dehydrogenase (Homo sapiens, UniProt P42330).
T1 construct: screen again a human placental λgt11 cDNA to get the full length cDNA clone; expressed in transfected cells; host or cells: human embryonal kidney 293 cells (pCMV / pCMV-neo vector)
T1 sequence (P42330 1-323): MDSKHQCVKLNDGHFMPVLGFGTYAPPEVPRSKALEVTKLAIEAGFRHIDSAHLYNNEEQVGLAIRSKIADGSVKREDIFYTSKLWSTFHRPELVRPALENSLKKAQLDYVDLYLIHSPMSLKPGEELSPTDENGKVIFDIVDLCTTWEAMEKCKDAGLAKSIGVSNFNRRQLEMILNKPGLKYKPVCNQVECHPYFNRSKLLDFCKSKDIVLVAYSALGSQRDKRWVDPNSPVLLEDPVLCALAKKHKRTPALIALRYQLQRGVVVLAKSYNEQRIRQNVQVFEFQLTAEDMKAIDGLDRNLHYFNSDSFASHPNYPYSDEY
As to the kind of experiment: Inhibition of human type 5 17β-HSD activity in transfected 293 cells. The note with it: Inhibition Type V 17β-HSD IC50, Table 4′. The test is classed as cell-based. As for the experimental part: The manner in which IC50 was determined is described in “Efficacy of the Preferred Inhibitors”. Lower numbers for IC50 are desirable.
Using a oligoprimer pair (5′-GGA-AAT-CGT-GAC-AGG-GAA-TGG-ATT-CCA-AAC-AG-3′, 5′-GGA-ATT-CTT-TAT-TGT-ATT-TCT-GGC-CTA-TGG-AGT-GAG-3′) derived from human aldoketoreductase (Qin et al., J. Steroid Biochem. Molec. Biol. 46: 673-679, 1993) and polymerase chain reaction (PCR), we have amplified from a human placental λgt11 cDNA library (Clontech Laboratories Inc., Palo Alto, Calif.) a cDNA fragment that was used as probe to screen again a human placental λgt11 cDNA to get the full length cDNA clone. The amplified cDNA fragment was purified on agarose gel and labeled with [α^32P]dCTP (Amersham Corp.) using the random primer labeling kit from Pharmacia Inc. PCR amplification reaction medium contained 50 mM KCl, 10 mM Tris-HCl, pH 8.3, 0.1% gelatin, 1 mM MgCl2, 250 μM dNTP, 0.25 μM oligonucleotide primers, and 200 ng of DNA prepared from human placental λgt11 cDNA library. The aqueous phase was overlaid with 75 μL of mineral oil to avoid evaporation. The mixture was heated at 98° C. for 5 min, following the temperature reduction to 72° C., 1 unit of Taq DNA polymerase was added. Using a DNA Thermal Cycler (Perkin-Elmer Corp.), 30 cycles of amplification were carried out using a step program (94° C., 1 min; 60° C., 1 min; and 72° C., 1 min)/cycle.
Approximately 5×10^5 recombinant phage plaques were screened with 1.5×10^6 cpm/ml of the probe. Prehybridization was performed for 4 h at 42° C. in 50% formamide, 5× Denhardt's solution (1× Denhardt's being 0.02% polyvinyl pyrrolidone, 0.02 Ficoll, 0.02 bovine serum albumin), 5×SSPE (1×SSPE being 0.18M NaCl, 10 mM NaH2PO4, pH 7.4, 1 mM EDTA), 0.1% SDS, and 100 μg/ml yeast tRNA. The probe was denatured by heating at 100° C. for 5 min, before being added to the hybridization solution at 42° C. overnight. Filters were then washed twice at room temperature in 2×SSC (1×SSC being […], pH 7.0), 0.1% SDS, and twice in 0.1×SSC, 0.1% SDS at 60° C. Positive recombinant plaques were purified by replating twice and grown in liquid culture. Phage DNA were isolated by centrifugation for 90 min at 105,000×g, and DNA was then isolated by phenol extraction and precipitation with isopropanol (Karen et al. 1987; In: Current Protocols in Molecular Biology (F. M. Ausubel, R. Brent, E. Kingston, D. D. Moore, T. G. Seidman, T. A. Smith and K. Struhl, eds), Wiley & Sons, New York, pp. 1.13.1-1.13.6).
The phage DNA were digested with EcoRI restriction enzymes and the resulting cDNA fragments were inserted into the EcoRI site downstream to the cytomegalovirus (CMV) promoter of the pCMV vector (kindly provided by Dr. Matthew, Cold Spring Harbor, N.Y., USA). Recombinant pCMV plasmids were amplified in Escherichia Coli DH5α competent cells, and were isolated by alkaline lysis procedure (Maniatis et al., In: Molecular cloning: a laboratory manual, Cold Spring Harbor Laboratory., 1982). Sequencing of double-stranded plasmid DNA was performed according to the dideoxy chain termination method (Sanger et al., PNAS 74: 5453-5467, 1977) using a T7 DNA polymerase sequencing kit (Pharmacia LKB Biotechnology). To avoid errors, all sequences were determined by sequencing both strands of the DNA. Oligonucleotide primers were synthesized in our laboratory with a 394 DNA/RNA synthesizer (Applied Biosystem).
The pCMV vector contain 576 nucleotides of the pCMV promoter (followed by 432 bp of small t intron (fragment 4713-4570) and poly adenylation signal (2825-2536)of SV40, followed by 1989 bp of the Pvu II(628)-AatII (2617) fragment from pUC 19 vector (New England Biolabs) that contains an E. Coli origin of replication and an ampicillin resistance gene for propagation in E. Coli. […]
With `COCCOc1cc2c(cc1C#N)C1CC[C@@]3(C)C(CC[C@@]34CCC(C)(C)C(=O)O4)C1CC2` (stereo partly shown) [EM-1396], the IC50 is 13 nM.

The same test, now with this note: Table 4′; read-out: Inhibition Type V 17β-HSD IC50.
Take `CC1CCC2(CCC3C4CCc5cc(O)c([N+](=O)[O-])cc5C4CCC32C)OC1=O` [EM-1126, 2-Nitro-1,3,5(10)-estratrien-3-ol-17(R)-spiro-2′-(5′-methyl-6′-oxo)tetrahydropyran]: the IC50 stood at 6 ± 1 nM.
For `COCCOc1cc2c(cc1F)C1CCC3(C)C(CCC34CCC(C)(C)C(=O)O4)C1CC2` (stereo not shown) [EM-1393-CS], the IC50 came out at 16 nM.
For the compound `CC1CC(=O)OC2(CCC3C4CCc5cc(O)ccc5C4CCC32C)C1` [PB-132-142, 3-Hydroxy-1,3,5(10)-estratrien-17(R)-spiro-2′-(4′-methyl-6′-oxo)tetrahydropyran], the IC50 was 19 ± 1.5 nM.
Same read-out and setting: then `C[C@]12CCC3c4ccc(O)cc4CCC3C1CC[C@@]21CCCC(=O)O1` (stereo partly drawn) [EM-919, 1,3,5(10)-estratrien-3-ol-17(R)-spiro-2′(6′-oxo)tetrahydropyran], with 10 ± 1.4 nM; and `COCCOc1cc2c(cc1C(=O)O)C1CCC3(C)C(CCC34CCC(C)(C)C(=O)O4)C1CC2` [EM-1405, 2-Carboxy-3-(2″-methoxyethyloxy)-1,3,5(10)-estratrien-17(R)-spiro-2′-(5′,5′-dimethyl-6′-oxo)tetrahydropyran], with 23 nM.
The same measure, in the same setting: the value for `COCCOc1ccc2c(c1)C(=O)CC1C2CCC2(C)C1CCC21CCC(C)(C)C(=O)O1` (stereo not shown) [EM-1408-CS] was 5.5 ± 1 nM; that for `CCS(=O)(=O)Oc1ccc2c(c1)CCC1C2CCC2(C)C1CCC21CCC(C)(C)C(=O)O1` (stereo not shown) [EM-1364-CS] was 17 nM.
`CC1(C)CCC2(CCC3C4CCc5cc(O)c([N+](=O)[O-])cc5C4CCC32C)OC1=O` (stereo not shown) [EM-1125-CS]: the half-inhibitory concentration (IC50) was determined as 2 nM.
For the compound `CC1(C)CCC2(CCC3C4CCc5cc(OCCN6CCCCC6)ccc5C4CCC32C)OC1=O` [EM-1390-CS, 3-(N-piperidyl-ethyl)-1,3,5(10)-estratrien-17(R)-spiro-2′-(5′,5′-dimethyl-6′-oxo)-tetrahydropyran], the 50% inhibitory concentration (IC50) was found to be 48 nM.
Turning to `COc1ccc2c(c1)C(=O)CC1C2CC[C@@]2(C)C1CC[C@@]21CCC(C)(C)C(=O)O1` (stereo partly shown) [EM-1394], the IC50 stood at 9 nM.
As to `CC1(C)CCC2(CCC3C4CCc5c(cc(Cl)c(O)c5Cl)C4CCC32C)OC1=O` (stereo not shown) [EM-1391-CS], the IC50 is 19 nM.
For `C[C@]12CCC3c4cc([N+](=O)[O-])c(O)cc4CCC3C1CC[C@@]21CCCC(=O)O1` (stereo partly drawn) [EM-1124, 2-Nitro-1,3,5(10)-estraetriene-3-ol-17(R)-spiro-2′-(6′-oxo)tetrahydropyran], the half-maximal inhibitory concentration (IC50) came out at 3 ± 0.2 nM.
For `C=CCC1CCC2(CCC3C4CCc5cc(O)ccc5C4CCC32C)OC1=O` [PB-132-152, 3-Hydroxy-1,3,5(10)-estratrien-17(R)-2′-(5′-allyl-6′-oxo)tetrahydropyran], the IC50 amounted to 107 ± 9 nM.
For `CSCCOc1ccc2c(c1)CCC1C2CCC2(C)C1CCC21CCCC(=O)O1` [CS-242, 3-Methylthioethyloxy-1,3,5(10)-estratrien-17(R)-spiro-2′-(6′-oxo) Tetrahydropyran], the IC50 was 6.6 ± 0.9 nM.
On to `COc1cc2c(cc1C)C1CCC3(C)C(CCC34CCC(C)(C)C(=O)O4)C1CC2` (stereo not shown) [EM-1412-CS], for which the half-inhibitory concentration (IC50) came out at 54 nM.
`CC1(C)CCC2(CCC3C4CCc5cc(OS(C)(=O)=O)ccc5C4CCC32C)OC1=O` (stereo not shown) [EM-1365-CS]: the IC50 was 12 nM.

Staying with this test, now noted: Table 5 column 2; 3.10^−6.
Consider `CN1C(=O)C=C[C@]2(C)C3CC[C@@]4(C)C(CC[C@@]45CCCC(=O)O5)C3CCC12` (stereo partly shown) [EM-1122-CS], for which the “Inhibition Type V 17β-HSD % inh. At 3.10^−6” value is 95) %.

The same test, now with this note: Table 5 column 2; 3.10^−7.
Consider `CN1C(=O)C=C[C@]2(C)C3CC[C@@]4(C)C(CC[C@@]45CCCC(=O)O5)C3CCC12` (stereo partly shown) [EM-1122-CS], for which the “Inhibition Type V 17β-HSD % inh. At 3.10^−7” value is given as “(80%”.

Staying with this test, now noted: at 3.10^−6.
Consider `COC(=O)CCCC(=O)O[C@]1(C(C)=O)CC[C@H]2[C@@H]3C=C(C)C4=CC(=O)CC[C@]4(C)[C@H]3CC[C@@]21C` [EM-1007, 6-Methyl-4,6-pregnadien-17α-ol-3,20-dione 4′-Carbomethoxybutyrate], for which the “Inhibition Type V 17β-HSD % Inh.” value is listed as 86) %.

The same test, now with this note: at 3.10^−7.
`COC(=O)CCCC(=O)O[C@]1(C(C)=O)CC[C@H]2[C@@H]3C=C(C)C4=CC(=O)CC[C@]4(C)[C@H]3CC[C@@]21C` [EM-1007, 6-Methyl-4,6-pregnadien-17α-ol-3,20-dione 4′-Carbomethoxybutyrate]: the “Inhibition Type V 17β-HSD % Inh.” value is “(81%”.

Still in this test, the particulars now being: read-out: Inhibition Type V 17B-HSD IC50.
Consider `CC(=O)O[C@]1(C)C(=O)CCC2C3C=C(C)C4=CC(=O)C=C[C@]4(C)C3CC[C@@]21C` (stereo partly shown) [CS-237], for which the concentration for half-maximal inhibition (IC50) stood at 9 ± 1 nM.

As a reminder, the IC50 is the concentration at which inhibition is half-maximal.
